Assay results as given in article PMC11272598, “RG7774 (Vicasinabin), an orally bioavailable cannabinoid receptor 2 (CB2R) agonist, decreases retinal vascular permeability, leukocyte adhesion, and ocular inflammation in animal models” (Frontiers in Pharmacology, 2024).

What was measured:
[1] = biological target: T1, Human 5-LOX (Homo sapiens, UniProt P09917); assay: Human 5-LOX assay; assay type: biochemical; conditions: RG7774 10 µM; read-out: Mean ± SEM % inhibition of control, Human 5-LOX
T1 construct: purchased Cayman Chemical Company #60402
Protocol: The inhibitory effects of different concentrations of RG7774 (0.1-500 µM) on the activities of human recombinant 5-LOX (Cayman Chemical Company #60402), 15-LOX (Cayman Chemical Company #10011263), and human platelet-derived 12-LOX were determined using the Biovision Lipoxygenase Activity Assay Kit (#BVN-K978-100). This kit converts the LOX substrate to an intermediate that reacted with the probe, generating a fluorescent product. The effect of RG7774 (preincubated for 15 min) at 10 µM on LOXs (5-LOX: 0.5 or 1.2 µg; 12-LOX: 20 µg; 15-LOX: 0.23 or 0.3 µg) was ascertained by adding the compounds directly to the incubation medium and the fluorescent signal, recorded at excitation/emission 500/536 nm at 30 sec intervals for 30-40 min, was directly proportional to LOX activity. […] The percentage of human 5-, 12-, and 15-LOX activity (control) was estimated from the amount of oxidized probe in the reaction using a standard curve.

[2] = biological target: T2, Mouse FAAH (Mus musculus, UniProt O08914); assay: Mouse FAAH assay (brain); assay type: biochemical; conditions: RG7774 10 µM; read-out: Mean ± SEM % inhibition of control, Mouse FAAH
T2 construct: Mouse brain was homogenized in 50 mM Tris-HCl (pH 7.4); from tissue; host or cells: mouse brain, 1000 g supernatant
Protocol: Mouse brain was homogenized in 50 mM Tris-HCl (pH 7.4) using a glass potter, centrifuged at 1000 g for 10 min, and the pellet was discarded. The supernatant (50 µg) was incubated with [^14C]-AEA (10 µM) (ARC, MO, USA) at 37°C for 15 min (Tris-HCl, pH 9.0) and reactions were stopped with a 2:1 (v/v) mixture of chloroform/methanol. [^14C]-ethanolamine release in the aqueous phase was measured as previously reported. Mouse supernatants (50 µg) were preincubated with RG7774 (10 µM) for 15 min and added directly to the incubation medium. Purified human FAAH (1.7 µg; Cayman Chemical Company, MI, USA) was incubated with [^14C]-AEA (10 µM) (ARC, MO, USA) at 37°C for 15 min (pH 9.0), as previously described. […] for 15 min with 8 different concentrations of RG7774 (0.1-500 µM) and added directly to the incubation medium (250 µL). Control experiments was carried out in the presence of the FAAH inhibitor, URB-597 (100 nM).

[3] = biological target: T3, CYP1A2 (Homo sapiens, UniProt P05177); assay: CYP inhibition assay; assay type: in vitro ADME; conditions: 1A2, human liver microsomes
T3 construct: pooled human liver microsomes, CYP probe substrate around the reported Km; from tissue; host or cells: pooled human liver microsomes
Protocol: (§1) CYP assays were conducted as previously described to determine the risk of drug-drug interactions between test compounds and drugs known to be metabolized via different CYPs. […] Conditions were optimized to achieve the linear metabolic rate for the probe substrate reactions. Samples were analyzed by LC-MS/MS. Assays generate two endpoints: IC50 (μM) and percent inhibition at the highest acceptable test concentration (typically 50 μM; lower if highest concentration data are rejected due to insolubility).

[4] = biological target: T4, CYP2C19 (Homo sapiens, UniProt P33261); assay: CYP inhibition assay; assay type: in vitro ADME; conditions: 2C19, human liver microsomes
T4 construct: pooled human liver microsomes, CYP probe substrate around the reported Km; from tissue; host or cells: pooled human liver microsomes
Protocol: as §1

[5] = biological target: T5, CYP2C8 (Homo sapiens, UniProt P10632); assay: CYP inhibition assay; assay type: in vitro ADME; conditions: 2C8, human liver microsomes
T5 construct: pooled human liver microsomes, CYP probe substrate around the reported Km; from tissue; host or cells: pooled human liver microsomes
Protocol: as §1

[6] = biological target: T6, CYP2C9 (Homo sapiens, UniProt P11712); assay: CYP inhibition assay; assay type: in vitro ADME; conditions: 2C9, human liver microsomes
T6 construct: pooled human liver microsomes, CYP probe substrate around the reported Km; from tissue; host or cells: pooled human liver microsomes
Protocol: as §1

[7] = biological target: T7, CYP2D6 (Homo sapiens, UniProt P10635); assay: CYP inhibition assay; assay type: in vitro ADME; conditions: 2D6, human liver microsomes
T7 construct: pooled human liver microsomes, CYP probe substrate around the reported Km; from tissue; host or cells: pooled human liver microsomes
Protocol: as §1

[8] = biological target: T8, CYP3A4 (Homo sapiens, UniProt P08684); assay: CYP inhibition assay; assay type: in vitro ADME; conditions: 3A4, human liver microsomes
T8 construct: pooled human liver microsomes, CYP probe substrate around the reported Km; from tissue; host or cells: pooled human liver microsomes
Protocol: as §1

[9] = Plasma PK profile in rats; assay type: in vivo, Wistar rats; conditions: mean (% CV)
Protocol: The plasma PK profile of RG7774 was assessed in adult male C57BL/6J mice and female Wistar rats (Charles River, Cologne, Germany) housed in a controlled environment (temperature, humidity, and 12 h light/dark cycle) with unrestricted access to food and water. The ocular PK profile of RG7774 was assessed in adult female […] rats (Charles River, Mattawan, MI, United States) housed in a controlled environment (21°C–22°C temperature, 40%–60%, humidity, and 12 h light/dark cycle) with unrestricted access to food and water and conducted according to local regulations by EyeCRO (Ann Arbor, MI, United States).
In the first study (animal permission #1857), mice received RG7774 as an intravenous (IV) bolus at 1 mg/kg (n = 6) or as an oral (PO) dose at 3 mg/kg (n = 5). In the second study (animal permission #2373), rats received RG7774 as an IV bolus at 10 mg/kg (n = 4) or via gavage at 30 mg/kg (n = 3). Blood samples were collected 0.1, 1, 3, 10, and 24 h post-dose under deep anesthesia with 3%–5% isoflurane in 100% O2. Samples were collected sublingually from mice, from the tail vein in rats or via heart puncture (terminal) into anticoagulant-coated polypropylene tubes and placed on ice. Plasma was prepared within 30 min of collection by centrifugation at 3,000 g for 5 min at 4°C and was immediately frozen. RG7774 concentrations in plasma were determined using LC-MS/MS. PK parameters were estimated by non-compartmental analysis of plasma data using Phoenix WinNonlin software (Certara, Princeton, NJ, United States).

[10] = female, Wistar, rat, plasma, IV 10 mg/kg
[11] = female, Wistar, rat, plasma, PO 30 mg/kg

T6 sequence (P11712 whole entry): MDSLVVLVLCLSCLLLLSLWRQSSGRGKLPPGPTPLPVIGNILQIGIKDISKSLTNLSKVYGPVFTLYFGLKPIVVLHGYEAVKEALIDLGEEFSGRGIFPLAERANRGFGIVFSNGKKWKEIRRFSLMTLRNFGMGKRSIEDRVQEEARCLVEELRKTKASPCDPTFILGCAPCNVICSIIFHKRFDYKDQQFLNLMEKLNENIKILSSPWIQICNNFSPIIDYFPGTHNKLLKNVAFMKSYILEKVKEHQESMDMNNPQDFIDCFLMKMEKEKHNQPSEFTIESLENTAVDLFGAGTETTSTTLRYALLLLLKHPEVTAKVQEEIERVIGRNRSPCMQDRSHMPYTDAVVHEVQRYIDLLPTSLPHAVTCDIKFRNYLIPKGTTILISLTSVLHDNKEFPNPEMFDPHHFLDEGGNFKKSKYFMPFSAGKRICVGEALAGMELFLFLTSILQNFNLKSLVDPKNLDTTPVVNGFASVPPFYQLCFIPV
T3 sequence (P05177 whole entry): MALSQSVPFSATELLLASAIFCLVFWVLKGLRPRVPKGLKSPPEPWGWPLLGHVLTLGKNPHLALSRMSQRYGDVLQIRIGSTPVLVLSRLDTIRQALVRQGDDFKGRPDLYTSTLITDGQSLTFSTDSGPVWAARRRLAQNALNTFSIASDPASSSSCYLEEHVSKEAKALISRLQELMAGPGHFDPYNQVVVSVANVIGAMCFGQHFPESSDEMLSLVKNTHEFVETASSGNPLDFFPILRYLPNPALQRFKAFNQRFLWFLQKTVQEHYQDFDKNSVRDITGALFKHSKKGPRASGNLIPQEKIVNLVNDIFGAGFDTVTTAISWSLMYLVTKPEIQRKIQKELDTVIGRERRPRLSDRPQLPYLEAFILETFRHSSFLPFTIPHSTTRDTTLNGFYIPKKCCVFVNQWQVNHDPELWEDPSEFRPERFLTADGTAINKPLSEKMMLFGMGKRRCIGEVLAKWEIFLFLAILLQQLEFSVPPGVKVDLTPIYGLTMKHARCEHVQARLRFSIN
T2 sequence (O08914 whole entry): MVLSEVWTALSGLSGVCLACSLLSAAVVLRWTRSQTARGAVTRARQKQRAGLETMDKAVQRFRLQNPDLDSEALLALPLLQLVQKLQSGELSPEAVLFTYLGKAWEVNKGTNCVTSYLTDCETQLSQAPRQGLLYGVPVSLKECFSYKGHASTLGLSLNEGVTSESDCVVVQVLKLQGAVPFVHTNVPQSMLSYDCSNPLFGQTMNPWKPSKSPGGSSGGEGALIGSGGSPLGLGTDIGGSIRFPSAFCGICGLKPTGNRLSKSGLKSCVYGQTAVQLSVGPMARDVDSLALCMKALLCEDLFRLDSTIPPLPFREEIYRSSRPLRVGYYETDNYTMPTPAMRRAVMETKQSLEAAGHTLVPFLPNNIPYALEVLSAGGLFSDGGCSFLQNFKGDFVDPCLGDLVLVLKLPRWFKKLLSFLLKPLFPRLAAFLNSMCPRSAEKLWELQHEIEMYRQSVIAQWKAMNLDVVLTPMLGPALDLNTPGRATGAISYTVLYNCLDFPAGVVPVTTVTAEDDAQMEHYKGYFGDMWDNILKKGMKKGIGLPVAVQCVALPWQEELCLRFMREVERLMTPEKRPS
T5 sequence (P10632 whole entry): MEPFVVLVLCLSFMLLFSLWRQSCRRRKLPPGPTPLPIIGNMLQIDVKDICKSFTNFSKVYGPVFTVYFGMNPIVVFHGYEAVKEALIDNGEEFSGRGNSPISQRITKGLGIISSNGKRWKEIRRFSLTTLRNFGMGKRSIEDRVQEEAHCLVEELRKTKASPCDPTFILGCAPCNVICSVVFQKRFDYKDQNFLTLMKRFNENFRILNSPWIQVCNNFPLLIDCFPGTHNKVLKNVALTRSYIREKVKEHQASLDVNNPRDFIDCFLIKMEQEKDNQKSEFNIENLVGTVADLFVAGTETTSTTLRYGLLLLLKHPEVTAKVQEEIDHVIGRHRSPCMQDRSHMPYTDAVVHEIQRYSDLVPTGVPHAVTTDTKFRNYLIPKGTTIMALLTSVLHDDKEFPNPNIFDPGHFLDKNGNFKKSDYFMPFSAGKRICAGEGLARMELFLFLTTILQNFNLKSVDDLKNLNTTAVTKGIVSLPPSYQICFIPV
T7 sequence (P10635 whole entry): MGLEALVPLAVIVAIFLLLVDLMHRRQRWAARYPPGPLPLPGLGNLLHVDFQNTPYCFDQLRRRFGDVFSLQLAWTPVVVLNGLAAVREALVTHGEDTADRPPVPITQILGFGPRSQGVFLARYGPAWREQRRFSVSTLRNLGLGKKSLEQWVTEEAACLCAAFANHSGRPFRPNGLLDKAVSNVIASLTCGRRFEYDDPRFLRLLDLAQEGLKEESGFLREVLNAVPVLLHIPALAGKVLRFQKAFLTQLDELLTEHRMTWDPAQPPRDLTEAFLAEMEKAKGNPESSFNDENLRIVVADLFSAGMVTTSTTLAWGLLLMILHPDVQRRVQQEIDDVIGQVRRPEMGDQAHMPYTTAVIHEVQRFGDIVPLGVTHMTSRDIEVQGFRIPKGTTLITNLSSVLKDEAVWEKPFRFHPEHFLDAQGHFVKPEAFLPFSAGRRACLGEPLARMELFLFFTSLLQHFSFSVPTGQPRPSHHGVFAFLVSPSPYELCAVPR
T1 sequence (P09917 whole entry): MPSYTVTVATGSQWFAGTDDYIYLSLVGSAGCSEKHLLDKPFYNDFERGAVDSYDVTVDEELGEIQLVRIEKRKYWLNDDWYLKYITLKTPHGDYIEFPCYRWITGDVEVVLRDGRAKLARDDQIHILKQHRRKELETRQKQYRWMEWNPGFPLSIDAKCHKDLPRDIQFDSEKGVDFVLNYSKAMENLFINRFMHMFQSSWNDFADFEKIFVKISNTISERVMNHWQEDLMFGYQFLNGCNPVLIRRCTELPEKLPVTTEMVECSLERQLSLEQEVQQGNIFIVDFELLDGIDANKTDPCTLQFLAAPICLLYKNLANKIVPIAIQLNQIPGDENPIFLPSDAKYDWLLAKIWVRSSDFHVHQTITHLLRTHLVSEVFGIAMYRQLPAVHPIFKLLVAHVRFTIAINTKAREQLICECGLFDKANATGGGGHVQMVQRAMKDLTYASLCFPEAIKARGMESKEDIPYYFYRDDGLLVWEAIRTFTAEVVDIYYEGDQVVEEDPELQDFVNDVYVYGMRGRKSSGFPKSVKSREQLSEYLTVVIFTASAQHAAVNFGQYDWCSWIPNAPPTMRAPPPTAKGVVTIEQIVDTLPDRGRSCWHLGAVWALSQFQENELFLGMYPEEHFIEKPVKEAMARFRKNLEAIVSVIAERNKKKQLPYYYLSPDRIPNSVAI
T8 sequence (P08684 whole entry): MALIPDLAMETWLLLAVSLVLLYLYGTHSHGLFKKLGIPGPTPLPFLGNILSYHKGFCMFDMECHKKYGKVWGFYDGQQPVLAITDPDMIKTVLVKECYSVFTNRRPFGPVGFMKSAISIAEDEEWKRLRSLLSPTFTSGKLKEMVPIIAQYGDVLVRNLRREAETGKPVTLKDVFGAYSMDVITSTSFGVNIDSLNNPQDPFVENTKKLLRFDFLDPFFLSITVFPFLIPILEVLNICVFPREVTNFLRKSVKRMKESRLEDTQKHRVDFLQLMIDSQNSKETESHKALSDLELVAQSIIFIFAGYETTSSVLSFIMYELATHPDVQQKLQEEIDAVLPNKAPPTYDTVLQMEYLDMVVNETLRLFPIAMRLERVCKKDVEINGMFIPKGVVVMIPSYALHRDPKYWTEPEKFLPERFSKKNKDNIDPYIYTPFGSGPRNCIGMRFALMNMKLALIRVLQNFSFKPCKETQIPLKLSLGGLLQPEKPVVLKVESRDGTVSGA
T4 sequence (P33261 whole entry): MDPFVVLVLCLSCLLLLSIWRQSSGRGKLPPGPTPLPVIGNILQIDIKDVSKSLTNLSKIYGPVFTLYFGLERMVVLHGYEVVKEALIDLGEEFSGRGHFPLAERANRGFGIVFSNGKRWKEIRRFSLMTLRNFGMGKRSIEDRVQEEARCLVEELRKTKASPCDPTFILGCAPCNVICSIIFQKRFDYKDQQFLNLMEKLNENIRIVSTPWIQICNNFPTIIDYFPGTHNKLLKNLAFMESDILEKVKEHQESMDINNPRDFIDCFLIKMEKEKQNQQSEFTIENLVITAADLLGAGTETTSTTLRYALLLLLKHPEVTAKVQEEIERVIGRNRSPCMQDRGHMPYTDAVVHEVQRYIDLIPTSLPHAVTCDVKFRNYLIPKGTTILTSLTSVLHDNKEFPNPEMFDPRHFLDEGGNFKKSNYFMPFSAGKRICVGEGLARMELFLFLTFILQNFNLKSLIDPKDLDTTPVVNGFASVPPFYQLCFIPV

In the case of `Cn1nnnc1Cn1nnc2c(N3CC[C@H](O)C3)nc(C(C)(C)C)nc21` [RG7774, (S)-1-(5-tert-butyl-3-[(1-methyl-1H-tetrazol-5-yl)methyl]-3H-[1,2,3]triazolo[4,5-d]pyrimidin-7-yl)pyrrolidin-3-ol], the inhibition at 10 µM [1] is reported as -20.5%, the inhibition at 10 µM [2] is reported as 6 ± 8.7% and the IC50 [3] is reported as > 50 µM. The IC50 [4] was > 50 µM, the IC50 [5] was > 50 µM and the IC50 [6] was 29 µM. For the same molecule, the IC50 [7] was > 50 µM, the IC50 [8] was > 50 µM and the AUCinf/dose ([9]; IV 10 mg/kg) was 6,000 (16) ng h^–1 ml^–1 (mg kg^−1) ^−1. For the same molecule, the AUCinf/dose ([9]; PO 30 mg/kg) was 4,670 (9.4) ng h^–1 ml^–1 (mg kg^−1) ^−1, the Cmax/dose ([9]; PO 30 mg/kg) was 466 (13) ng ml^–1 (mg kg^–1) ^−1 and the clearance [9, 10] was 2.84 mL/min/kg. For the same molecule, the half-life [9, 10] was 2.54 h, the Vd ([9]; female, Wistar, rat, plasma, IV 10 mg/kg, read-out: Vss) was 0.442 L/kg and the Tmax [9, 11] was 1.25 h. It also gave a bioavailability [9, 11] of 81.4% and a half-life [9, 11] of 3.18 h.
